Here are results for two compounds from patent publication US9987287B2, “Orally disintegrating solid dosage unit containing an estetrol component” (Donesta Bioscience B.V., priority 2013, dated 2018).

A short description of data set [1]: Dissolution into saliva, anhydrous vs monohydrate. It counts as physicochemical. Conditions: compared with estetrol monohydrate.
The test system of another data set is production of SHBG. The settings on record: in vitro; cited from earlier work.
Another data set concerns estrogen receptors. Conditions: in vitro; cited from earlier work.
In data set [2] the target is T1, sex hormone binding globulin (SHBG) (Homo sapiens, UniProt P04278).
T1 sequence (P04278 30-402): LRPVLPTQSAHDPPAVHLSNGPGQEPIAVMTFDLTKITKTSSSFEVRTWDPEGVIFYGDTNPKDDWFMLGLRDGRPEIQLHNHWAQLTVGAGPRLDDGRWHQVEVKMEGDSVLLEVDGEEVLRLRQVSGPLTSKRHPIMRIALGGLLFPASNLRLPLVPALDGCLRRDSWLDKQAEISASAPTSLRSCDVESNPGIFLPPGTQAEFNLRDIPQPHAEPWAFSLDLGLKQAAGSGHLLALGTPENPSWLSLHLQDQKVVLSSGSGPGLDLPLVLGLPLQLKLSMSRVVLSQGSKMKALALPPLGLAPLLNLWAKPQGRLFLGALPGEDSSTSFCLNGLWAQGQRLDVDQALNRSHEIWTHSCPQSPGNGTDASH
The settings on record: cited from earlier work.

The conditions of data set [3]: humans; cited from earlier work.
Data set [4] has as its system DMBA mammary tumour model. Conditions: extent and dose level similar to tamoxifen and to ovariectomy; cited from earlier work.
The nature of data set [5]: Randomized, open-label, single dose, two-period, cross-over pharmacokinetic study, sublingual vs oral estetrol. It counts as in vivo, healthy female postmenopausal volunteers. The settings on record: 10 mg single dose. How it is done: A randomized, open-label, single dose, two-period, cross-over, pharmacokinetic study is conducted to compare sublingual bioavailability of 10 mg estetrol administered in two 100 mg tablets (each containing 5 mg estetrol and having the same composition as the tablets described in Example 7) with oral availability of estetrol contained in a 83 mg tablet containing 10 mg estetrol. These tablets are administered sublingually and orally to healthy female postmenopausal volunteers under fasting conditions.
Twelve healthy postmenopausal female subjects are selected on the basis of the following criteria: Caucasian race, age of 45-65 years (inclusive), nonsmokers or past smokers (at least 6 months before dosing), body-mass index (BMI)=18.5 to 30 kg/m^2 (inclusive at the time of the screening).
At the start of the first and the second period of the study, between 07:00 am and 07:28 am, 6 subjects receive a single dose of the sublingual formulation of estetrol by administering two estetrol tablets (tablet weight 100 mg; 5 mg estetrol each) and 6 subjects receive a single oral dose of the oral estetrol formulation by administering one estetrol tablet (tablet weight 83 mg; 10 mg estetrol), ingested together with 200 ml water.
Subjects are required to fast for at least 10 hours prior to tablet administration and for at least 4 hours after administration. Drinking of water or beverages is not permitted within 1 hour before the drug administration. Subjects receive 200 ml of water 1 hour prior to and 2 hours after tablet administration. Subjects are free to drink water and fruit tea from 4 hours following the tablet administration. Standardized meals are provided 10.5 hours before and 4, 6, 9, and 13 hours after tablet administration.
The estetrol concentration in the collected blood samples is determined by means of HPLC/MS/MS. The concentrations of glucuronided estetrol (D-ring) in the urine samples is also determined with the help of HPLC/MS/MS.

The conditions of data set [6]: dose-dependent; cited from earlier work.
Data set [7] has as its system human breast cancer cells. Conditions: in the presence of 17β-estradiol, in vitro; cited from earlier work.

Turning to `C[C@]12CC[C@@H]3c4ccc(O)cc4CC[C@H]3[C@@H]1[C@@H](O)[C@@H](O)[C@@H]2O` [Anhydrous estetrol, estetrol], the Hygroscopicity entry was “highly hygroscopic”. Moreover, the “Rate of dissolution into saliva” value in [1] is recorded as “dissolves more rapidly into saliva than estetrol monohydrate”.
For `C[C@]12CC[C@@H]3c4ccc(O)cc4CC[C@H]3[C@@H]1[C@@H](O)[C@@H](O)[C@@H]2O` [estetrol, 1,3,5 (10)-estratrien-3,15α,16α,17β-tetrol], the “Stimulation of SHBG production” value with production of SHBG was “does not stimulate the production of SHBG”. In addition, in the data set on estrogen receptors, the “Binding selectivity to estrogen receptors” value is on record as “binds highly selective to the estrogen receptors with preference for the ERα form of the receptor”. The “Binding to SHBG” value in data set [2] is “does not bind”. Also, in data set [3], the Oral bioavailability result was “high and dose-proportional”; the Terminal elimination half-life entry was “about 28 hours”. Further, the “Tumour development in DMBA mammary tumour model” value in data set [4] is listed as “prevented tumour development”. Besides, in data set [5] (fasting, sublingual two 100 mg tablets (5 mg each, composition of Example 7) vs oral 83 mg tablet), the “Bioavailability of sublingually administered estetrol versus orally administered estetrol” value was “comparable or even superior to orally administered estetrol”. The “Onset of bioavailability, sublingual versus oral” value in data set [5] (fasting, sublingual two 100 mg tablets vs oral 83 mg tablet) is “earlier bioavailability compared to orally administered estetrol”. In addition, in data set [5] (sublingual tablets vs oral tablet), the “Impact on a liver function parameter, sublingual” value was “less impact on a liver function parameter”. Moreover, the “Estrogenic effects in rat models” value in [6] is “exhibited estrogenic effects on the vagina, the uterus (both myometrium and endometrium), body weight, bone mass, bone strength, hot flushes and on ovulation (inhibition)”. Moreover, in data set [7], the “Effect in human breast cancer cells” value was “anti-estrogenic effect”.
